# Source: US8178506B2, “Oligomeric compounds and compositions for use in modulation of small non-coding RNAs” (Regulus Therapeutics Inc., priority 2003, dated 2012)
# Several values for one entry are separate records, joined by “and”; a condition that tells them apart may be missing. Equal entries are not always repeated. In the oligonucleotide strings, read from the 5' end, every base follows the letter of its sugar. An asterisk marks phosphorothioate; unmarked linkages are phosphodiester. Other units and linkages are bracketed, terminal groups are in braces. A string of capitals states the bases alone. e = 2'-O-(2-methoxyethyl) (MOE); [5mC] = 5-methylcytosine; d = 2'-deoxy (DNA)
# Columns and labels:
# follistatin = test: Follistatin mRNA expression in HepG2 cells; format: cell-based, human; details: for Follistatin mRNA expression: Experiment 2, insulin treated: HepG2 cells transfected with oligomeric compound, 1 nM insulin for four hours, UTC + 1 nM insulin = 100; for Follistatin mRNA: four hours, UTC = 100
# HeLa cells = test: Cell cycle assay in HeLa cells; format: cell-based, human; details: HeLa cells, 150 nM oligomeric compound; for % cells aneuploid / % cells in cell cycle phase G1 / % cells in cell cycle phase G2/M / % cells in cell cycle phase S / % cells in cell cycle phase subG1: 24 hours, relative to untreated control (UTC = 100); for % cells in cell cycle phase: G1 / % cells in cell cycle phase: G2/M / % cells in cell cycle phase: S / % cells in cell cycle phase: aneuploid / % cells in cell cycle phase: subG1: 48 hours after treatment, relative to untreated control (UTC=100)
# [1] = HepG2 cells, Experiment 1, basal (no insulin)
# [2] = Experiment 1, basal (no insulin), HepG2, 100 nM oligomeric compound
# [3] = Experiment 2, 1 nM insulin treated, HepG2, 100 nM oligomeric compound
# [4] = Experiment 3, basal (no insulin), HepG2 cells, 48 hours post-transfection
# [5] = Experiment 4, insulin-sensitization: HepG2 cells treated with 1 nM insulin for four hours, 48 h post-transfection, mRNA by real-time PCR
Substance,Follistatin mRNA expression (follistatin),Follistatin mRNA (follistatin; [1]),% cells aneuploid (HeLa cells),% cells in cell cycle phase G1 (HeLa cells),% cells in cell cycle phase G2/M (HeLa cells),% cells in cell cycle phase S (HeLa cells),% cells in cell cycle phase subG1 (HeLa cells),% cells in cell cycle phase: G1 (HeLa cells),% cells in cell cycle phase: G2/M (HeLa cells),% cells in cell cycle phase: S (HeLa cells),% cells in cell cycle phase: aneuploid (HeLa cells),% cells in cell cycle phase: subG1 (HeLa cells),Follistatin (% UTC) (follistatin; [2]),Follistatin (% UTC) (follistatin; [3]),Follistatin (% UTC) (follistatin; [4]),Follistatin (% UTC) (follistatin; [5])
327897 (antisense eA*e[5mC]*eA*eG*eG*e[5mC]*e[5mC]*eG*eG*eG*eA*e[5mC]*eA*eA*eG*eT*eG*e[5mC]*eA*eA*eT*eA) [compound 327897],123,129,69% and 54%,114% and 128%,115% and 100%,80% and 74%,143% and 180%,100% and 94%,95% and 105%,103% and 114%,84% and 63%,134% and 125%,–,–,–,–
328115 (antisense eA*eG*eA*eA*eG*eG*eT*eG*eG*eG*eG*eA*eG*e[5mC]*eA*eG*e[5mC]*eG*eT*e[5mC]*eA) [compound 328115],91,–,59%,90%,147%,87%,177%,92%,107%,114%,86%,195%,–,–,–,–
327922 (antisense eT*e[5mC]*eA*eG*eT*eT*eT*eT*eG*e[5mC]*eA*eT*eG*eG*eA*eT*eT*eT*eG*e[5mC]*eA*e[5mC]*eA) [compound 327922],–,–,104%,97%,114%,96%,131%,96%,109%,105%,91%,81%,57 % UTC,61 % UTC,–,–
327885 (antisense eA*e[5mC]*eT*eA*e[5mC]*e[5mC]*eT*eG*e[5mC]*eA*e[5mC]*eT*eG*eT*eA*eA*eG*e[5mC]*eA*e[5mC]*eT*eT*eT*eG) [compound 327885],–,74,55%,129%,121%,63%,151%,78%,133%,129%,76%,456%,–,–,–,–
340927 (antisense eT*eG*eA*eG*e[5mC]*dT*dA*d[5mC]*dA*dG*dT*dG*d[5mC]*dT*dT*e[5mC]*eA*eT*e[5mC]*eT*e[5mC]*eA) [compound 340927],–,–,88% and 87%,121% and 128%,111% and 106%,75% and 71%,118% and 131%,91%,121% and 122%,107%,113% and 108%,95% and 83%,111 % UTC,128 % UTC,–,–
327903 (antisense eA*eA*e[5mC]*eT*eA*eT*eA*e[5mC]*eA*eA*e[5mC]*e[5mC]*eT*eA*e[5mC]*eT*eA*e[5mC]*e[5mC]*eT*e[5mC]*eA) [compound 327903],–,–,98%,92%,106%,104%,118%,102%,98%,95%,94%,74%,60 % UTC,89 % UTC,–,–
327901 (antisense eT*eG*eA*eG*e[5mC]*eT*eA*e[5mC]*eA*eG*eT*eG*e[5mC]*eT*eT*e[5mC]*eA*eT*e[5mC]*eT*e[5mC]*eA) [compound 327901],–,–,90%,101%,110%,94%,108%,98%,103%,104%,104%,93%,93 % UTC,135 % UTC,–,–
327878 (antisense e[5mC]*eT*eA*eG*eT*eG*eG*eT*e[5mC]*e[5mC]*eT*eA*eA*eA*e[5mC]*eA*eT*eT*eT*e[5mC]*eA*e[5mC]) [compound 327878],–,–,73%,96%,122%,94%,124%,89%,114%,119%,92%,50%,124 % UTC,150 % UTC,–,–
327911 (antisense eG*e[5mC]*eT*eA*e[5mC]*e[5mC]*eT*eG*e[5mC]*eA*e[5mC]*eT*eG*eT*eA*eA*eG*e[5mC]*eA*e[5mC]*eT*eT*eT*eT) [compound 327911],71,81,104%,130%,122%,62%,158%,99%,109%,96%,101%,65%,–,–,–,–
328685 (e[5mC]*eG*eG*e[5mC]*e[5mC]*dG*dG*dA*dG*d[5mC]*d[5mC]*dA*dT*dA*dG*eA*e[5mC]*eT*e[5mC]*eG; antisense) [compound 328685],–,–,–,–,–,–,–,–,–,–,–,–,–,–,100 % UTC,157 % UTC
327954 (antisense eA*e[5mC]*eA*eA*eA*eG*eT*eT*e[5mC]*eT*eG*eT*eG*eA*eT*eG*e[5mC]*eA*e[5mC]*eT*eG*eA) [compound 327954],–,–,–,–,–,–,–,–,–,–,–,–,100 % UTC,105 % UTC,–,–
"341800 (antisense AAGCCCAAAAGGAGAAUUCUUUG; all 2'-MOE, all phosphorothioate, methylation of C and T or U not given here) [compound 341800]",–,105,–,–,–,–,–,–,–,–,–,–,–,–,–,–
328677 (eT*e[5mC]*e[5mC]*eT*eG*dG*dA*dT*dG*dA*dT*dA*dT*d[5mC]*dT*eA*e[5mC]*e[5mC]*eT*e[5mC]; antisense) [compound 328677],–,–,–,–,–,–,–,–,–,–,–,–,–,–,130 % UTC,118 % UTC
328125 (antisense eT*eA*eT*eG*eA*eA*eA*eT*eG*e[5mC]*e[5mC]*eA*eG*eA*eG*e[5mC]*eT*eG*e[5mC]*e[5mC]*eA) [compound 328125],107,–,–,–,–,–,–,–,–,–,–,–,–,–,–,–
327890 (antisense eA*eG*e[5mC]*eA*e[5mC]*eA*eA*eA*e[5mC]*eT*eA*e[5mC]*eT*eA*e[5mC]*e[5mC]*eT*e[5mC]*eA) [compound 327890],–,–,–,–,–,–,–,–,–,–,–,–,78 % UTC,115 % UTC,–,–
327886 (antisense e[5mC]*eG*e[5mC]*eG*eT*eA*e[5mC]*e[5mC]*eA*eA*eA*eA*eG*eT*eA*eA*eT*eA*eA*eT*eG) [compound 327886],–,82,–,–,–,–,–,–,–,–,–,–,–,–,–,–
"341807 (antisense CTGGGACTTTGTAGGCCAGTT; all 2'-MOE, all phosphorothioate, methylation of C not given here) [compound 341807]",–,102,–,–,–,–,–,–,–,–,–,–,–,–,–,–
327880 (antisense eA*e[5mC]*eA*eA*eA*eT*eT*e[5mC]*eG*eG*eT*eT*e[5mC]*eT*eA*e[5mC]*eA*eG*eG*eG*eT*eA) [compound 327880],–,–,–,–,–,–,–,–,–,–,–,–,107 % UTC,149 % UTC,–,–
